One series relates to HL-60 cell line. The series can be described thus: in vitro. Particulars: human.
The test system of another series is BEL-7402 cell line. The series can be described thus: in vitro. Particulars: human.
Another series deals with Candida albicans. The series can be described thus: Antimicrobial activity, agar dilution method. The conditions noted are these: for MIC: Candida albicans, 24 h, read-out: MIC Candida albicans. In general terms: In agar dilution the substance is mixed into plates at graded concentrations.
The next series deals with Enterobacter aerogenes. The series can be described thus: Antimicrobial activity, agar dilution method. Particulars: for MIC: Klebsiella aerogenes, 24 h, read-out: MIC Enterobacter aerogenes; for MIC Enterobacter aerogenes: agar dilution, paper disks, 24 h incubation, 37 °C.
The subject of another series is Staphylococcus aureus. The series can be described thus: Antimicrobial activity, agar dilution method. Particulars: for MIC: Staphylococcus aureus, 24 h, read-out: MIC Staphylococcus aureus; for MIC Staphylococcus aureus: agar dilution, paper disks, 24 h incubation, 37 °C.
The next series relates to Pseudomonas aeruginosa. The series can be described thus: Antimicrobial activity, agar dilution method. Particulars: for MIC: Pseudomonas aeruginosa, 24 h; for MIC Pseudomonas aeruginosa: agar dilution, paper disks, 24 h incubation, 37 °C.
Series [1] deals with influenza virus (A/Puerto Rico/8/34 (H1N1), PR/8). The series can be described thus: Antiviral activity against H1N1, CPE inhibition assay. The format is cell-based. The conditions noted are these: read-out: IC50 anti-H1N1 activity.
A short description of series [2]: Cytotoxicity against confluent MDCK cells by MTT method. The format is cell-based. The conditions noted are these: dog, read-out: CC50 (50% cytotoxicity concentration). (In general: Formazan colour is commonly taken as a measure of viable cells.)
Description: (§1) Cytotoxicity against HL-60 and BEL-7402 cancer cell lines and confluent MDCK cells was assayed by the MTT method [28]. Cell lines were grown in RPMI-1640 supplemented with 10% FBS under a humidified atmosphere of 5% CO2 and 95% air at 37 °C. […] Then, 2 μL of the test solutions (in MeOH) were added to each well and further incubated for 72 h. The MTT solution (20 μL, 5 mg/mL in IPMI-1640 medium) was then added to each well and incubated for 4 h. Old medium containing MTT (150 μL) was then gently replaced by DMSO and pipetted to dissolve any formazan crystals formed. Absorbance was then determined on a SPECTRA MAX PLUS plate reader at 540 nm. The CC50 was calculated as the compound concentration necessary to reduce cell viability by 50%.
[3] abbreviates: read-out: MIC Pseudomonas aeruginosa, agar dilution, paper disks, 24 h incubation, 37 °C.

Values after ≈ are worked out from the molar mass of the structure shown. Read-outs that look alike come from different tables or passages of the source.

Description for BEL-7402 cell line: as §1
Description for Candida albicans: (§2) Antimicrobial activity against E. aerogenes, P. aeruginosa, S. aureus and C. albicans was evaluated using an agar dilution method [29]. The tested strains were cultivated in LB agar plates for bacteria and in YPD agar plates for C. albicans, at 37 °C. Compounds and positive controls were dissolved in 5% DMSO-H2O at different concentrations from 1000 to 62.5 μg/mL and then from 50 to 0.78 μg/mL, using continuous 2-fold dilution. The test solutions (5 μL) were absorbed onto paper disks (5 mm diameter) and placed on the assay plates. After 24 h incubation, zones of inhibition (mm in diameter) were recorded. The minimum inhibitory concentrations were defined as the lowest concentration at which an inhibition zone could be observed.
Description for Enterobacter aerogenes: as §2
Description for HL-60 cell line: as §1
Description for Pseudomonas aeruginosa: as §2
Description for Staphylococcus aureus: as §2

One may read the IC50 as the concentration that gives 50% inhibition. For `COc1cc([C@@H]2c3cc4c(cc3[C@@H](O[C@@H]3O[C@@H]5CO[C@@H](C)O[C@H]5[C@H](O)[C@H]3O)[C@H]3COC(=O)[C@H]23)OCO4)cc(OC)c1O` [Vp-16, Etoposide, reference compound], the half-maximal inhibitory concentration (IC50) at 72 h in the series with HL-60 cell line stood at 0.042 µM; with BEL-7402 cell line, 830 nM.

Broadly, the MIC is the lowest concentration that inhibits growth of the organism. On to `COC(=O)c1cccc(O)c1NC(=O)c1ccccc1NC(=O)c1cccnc1` [Compound 1, methyl 3-hydroxy-2-(2-(nicotinamido)benzamido)benzoate], for which the MIC is more than 100 µM in the series with Candida albicans, more than 100 µM in the series with Enterobacter aerogenes, 63.9 µM (≈ 25 µg/mL) with Staphylococcus aureus and 63.9 µM (≈ 25 µg/mL) in the series with Pseudomonas aeruginosa (setting [3]). For the same molecule, the “MIC Pseudomonas aeruginosa” value against Pseudomonas aeruginosa is more than 100 µM.

Regarding `C/C=C/C1=CC(=O)[C@@H](O)[C@@H]1O` [Compound 15, (+)-terrein], in the series on Candida albicans (agar dilution, YPD agar, paper disks, 24 h incubation, 37 °C), the “MIC Candida albicans” value was more than 100 µM. Moreover, the “MIC Enterobacter aerogenes” value against Enterobacter aerogenes is more than 100 µM. For the same molecule, the “MIC Staphylococcus aureus” value in the series with Staphylococcus aureus was more than 100 µM. In the series on Pseudomonas aeruginosa, the “MIC Pseudomonas aeruginosa” value is more than 100 µM.

In the case of `CC(O)C(=O)O.O=C(O)c1cn(C2CC2)c2cc(N3CCNCC3)c(F)cc2c1=O` [Ciprofloxacinlactate, reference compound], the “MIC Enterobacter aerogenes” value in the series on Enterobacter aerogenes came out at 1 µM. The “MIC Staphylococcus aureus” value with Staphylococcus aureus came to 1 µM. The “MIC Pseudomonas aeruginosa” value in the series on Pseudomonas aeruginosa came out at 30 µM.

As for `CC(=O)N1CCN(c2ccc(OCC3COC(Cn4ccnc4)(c4ccc(Cl)cc4Cl)O3)cc2)CC1` (stereo not shown) [Ketoconazole, reference compound], the minimal inhibitory concentration (MIC) in the series on Candida albicans was found to be 5 µM (≈ 2.66 µg/mL).

Consider `COC(=O)c1cccc(O)c1-n1c(-c2cccnc2)nc2ccccc2c1=O` [Compound 2, methyl 3-hydroxy-2-(4-oxo-2-(pyridin-3-yl)quinazolin-3(4H)-yl)benzoate], for which the minimal inhibitory concentration (MIC) is more than 100 µM with Candida albicans, 33.5 µM (≈ 12.5 µg/mL) in the series with Enterobacter aerogenes, more than 100 µM with Staphylococcus aureus and more than 100 µM in the series on Pseudomonas aeruginosa (setting [3]).

For `NC(=O)c1ncn([C@@H]2O[C@H](CO)[C@@H](O)[C@H]2O)n1` [Ribavirin, reference compound], the concentration for half-maximal inhibition (IC50) in series [1] (CPE inhibition in MDCK cells, 48 h post-infection) was found to be 101 µM.

As to `COC(=O)c1cc(OC)c(OC)c(OC)c1NC(=O)c1ccccc1NC(=O)c1cccnc1` [Compound 4, methyl 3,4,5-trimethoxy-2-(2-(nicotinamido)benzamido)benzoate], the MIC with Candida albicans was more than 100 µM; in the series on Enterobacter aerogenes, more than 100 µM; with Staphylococcus aureus, 52.4 µM (≈ 24.4 µg/mL); with Pseudomonas aeruginosa (setting [3]) it was more than 100 µM.

Consider `COC(=O)[C@]1(Cc2ccc(O)c(CC=C(C)C)c2)OC(=O)C(O)=C1c1ccc(O)cc1` [Compound 5, butyrolactone I], for which, in the series with HL-60 cell line, the concentration for half-maximal inhibition (IC50) at 72 h is 57.5 µM. The CC50 at 72 h in series [2] came to 976 µM. The IC50 in series [1] (MDCK, 48 h) turned out to be 143 µM.

As for `COC(=O)[C@]1(Cc2ccc(O)c(CCC(C)(C)O)c2)OC(=O)C(O)=C1c1ccc(O)cc1` [Compound 3, (R)-methyl 4-hydroxy-2-(4-hydroxy-3-(3-hydroxy-3-methylbutyl)benzyl)-3-(4-hydroxyphenyl)-5-oxo-2,5-dihydrofuran-2-carboxylate], the MIC in the series with Candida albicans, in the series with Enterobacter aerogenes, in the series with Staphylococcus aureus and in the series with Pseudomonas aeruginosa (read-out: MIC Pseudomonas aeruginosa) was more than 100 µM each time.
